Laboratory results reported in ChEMBL document CHEMBL1201862, “PubChem BioAssay data set” (2004).
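Protocol summary: plate cells (96-well), add compound at 5 concentrations, incubate 48 h, interpolate endpoints linearly. The concentration for 50% growth inhibition is given as GI50.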 The source made the active and inactive calls. Rule as the data show it: active = GI50 up to about 1.1 µM and inactive = higher. Non-standard residues stand in square brackets, D forms with d. Residues, ends and D or L forms follow the SMILES beside them. *: point of attachment. Bn2Val = CC(C)[C@@H](C(=O)*)N(Cc1ccccc1)Cc1ccccc1; NH(4-Cl-benzyl) = Clc1ccc(CN*)cc1; NMeV = CN[C@H](C(=O)O)C(C)C; dNMeA = CN[C@H](C)C(=O)O

How the values were obtained:
Assay in all cases: NCI-60 cell line screen, 48 h
EKVX = tested on: EKVX
HT-29 = tested on: HT-29
Hs-578T = tested on: Hs-578T
KM12 = tested on: KM12
LOX IMVI = tested on: LOX IMVI
MOLT-4 = tested on: MOLT-4
OVCAR-8 = tested on: OVCAR-8
RPMI-8226 = tested on: RPMI-8226
RXF 393 = tested on: RXF 393
SF-268 = tested on: SF-268
SF-539 = tested on: SF-539
SN12C = tested on: SN12C
SNB-19 = tested on: SNB-19
SNB-75 = tested on: SNB-75
T47D = tested on: T47D
U-251 = tested on: U-251
UACC-257 = tested on: UACC-257
UACC-62 = tested on: UACC-62
UO-31 = tested on: UO-31
NCI-H226 = tested on: NCI-H226

| Structure (SMILES) | GI50 (EKVX) | GI50 (HT-29) | GI50 (Hs-578T) | GI50 (KM12) | GI50 (LOX IMVI) | GI50 (MOLT-4) | GI50 (OVCAR-8) | GI50 (RPMI-8226) | GI50 (RXF 393) | GI50 (SF-268) | GI50 (SF-539) | GI50 (SN12C) | GI50 (SNB-19) | GI50 (SNB-75) | GI50 (T47D) | GI50 (U-251) | GI50 (UACC-257) | GI50 (UACC-62) | GI50 (UO-31) | GI50 (NCI-H226) |
| --- | --- | --- | --- | --- | --- | --- | --- | --- | --- | --- | --- | --- | --- | --- | --- | --- | --- | --- | --- | --- |
| COC1=CC(=O)c2c(c(COP(=O)(N(C)CCBr)N(C)CCBr)cn2C)C1=O | 0.211 µM (active) | < 0.0219 µM (active) | 0.392 µM (active) | 0.219 µM (active) | 0.194 µM (active) | < 0.01 µM (active) | < 0.0264 µM (active) | 0.0323 µM (active) | 0.0574 µM (active) | 0.0431 µM (active) | < 0.0114 µM (active) | < 0.01 µM (active) | 0.141 µM (active) | 0.0826 µM (active) | 1.31 µM (inactive) | < 0.0225 µM (active) | 0.258 µM (active) | < 0.0333 µM (active) | < 0.0261 µM (active) | – |
| c1ccc(/C(=N/Nc2ccccn2)c2ncccn2)cc1 | 0.292 µM (active) | < 0.01 µM (active) | 2.59 µM (inactive) | 3.18 µM (inactive) | – | 0.0662 µM (active) | 0.369 µM (active) | 1.39 µM (inactive) | 11.3 µM (inactive) | 0.855 µM (active) | 3.52 µM (inactive) | 0.488 µM (active) | 4.26 µM (inactive) | 1.87 µM (inactive) | 0.0346 µM (active) | 2.07 µM (inactive) | 0.729 µM (active) | 2.82 µM (inactive) | 0.617 µM (active) | 0.201 µM (active) |
| COC(=O)c1cn(CCCC(=O)O)nn1 | > 100 µM (inactive) | > 100 µM (inactive) | > 100 µM (inactive) | > 100 µM (inactive) | > 100 µM (inactive) | > 100 µM (inactive) | > 100 µM (inactive) | – | > 100 µM (inactive) | > 100 µM (inactive) | > 100 µM (inactive) | > 100 µM (inactive) | > 100 µM (inactive) | > 100 µM (inactive) | > 100 µM (inactive) | > 100 µM (inactive) | > 100 µM (inactive) | > 100 µM (inactive) | > 100 µM (inactive) | > 100 µM (inactive) |
| COc1ccc(Nc2nc3ccccc3nc2-c2cccs2)cc1OC | > 10 µM (inactive) | > 10 µM (inactive) | > 10 µM (inactive) | > 10 µM (inactive) | > 10 µM (inactive) | > 10 µM (inactive) | > 10 µM (inactive) | > 10 µM (inactive) | > 10 µM (inactive) | > 10 µM (inactive) | > 10 µM (inactive) | > 10 µM (inactive) | > 10 µM (inactive) | > 10 µM (inactive) | > 10 µM (inactive) | > 10 µM (inactive) | > 10 µM (inactive) | > 10 µM (inactive) | > 10 µM (inactive) | > 10 µM (inactive) |
| COc1ccc(-c2cc(-c3ccncc3)nc(N)c2-c2ccc(F)cc2)cc1 | > 100 µM (inactive) | 11.7 µM (inactive) | > 100 µM (inactive) | 33.8 µM (inactive) | 22.8 µM (inactive) | 73.3 µM (inactive) | 41.3 µM (inactive) | > 100 µM (inactive) | 15 µM (inactive) | 44 µM (inactive) | 19.4 µM (inactive) | – | 41.5 µM (inactive) | 11.5 µM (inactive) | 80.9 µM (inactive) | > 100 µM (inactive) | 24.2 µM (inactive) | 71.4 µM (inactive) | 17.3 µM (inactive) | 46.1 µM (inactive) |
| CCOC(=O)/C(=C\c1c[nH]c2ccccc12)P(=O)(OCC)OCC | 59.8 µM (inactive) | 28.4 µM (inactive) | 42.8 µM (inactive) | 33.2 µM (inactive) | 20.6 µM (inactive) | 55.1 µM (inactive) | 22.3 µM (inactive) | 33.5 µM (inactive) | 33.6 µM (inactive) | 29.5 µM (inactive) | 21.9 µM (inactive) | 30.5 µM (inactive) | 62.7 µM (inactive) | 26.5 µM (inactive) | 43.8 µM (inactive) | 33.8 µM (inactive) | 45.3 µM (inactive) | 32.9 µM (inactive) | – | 28.3 µM (inactive) |
| CNC1=C(C)C(=O)C(O)=C([C@H](C)CCC=C(C)C)C1=O | 2.33 µM (inactive) | 36.6 µM (inactive) | 28.3 µM (inactive) | 17 µM (inactive) | 14.7 µM (inactive) | 6.18 µM (inactive) | 10.7 µM (inactive) | 2.94 µM (inactive) | 30.7 µM (inactive) | 19.1 µM (inactive) | – | 22.8 µM (inactive) | 31.8 µM (inactive) | 18 µM (inactive) | 25.4 µM (inactive) | 27.7 µM (inactive) | 32.7 µM (inactive) | 13 µM (inactive) | 9.82 µM (inactive) | 22.1 µM (inactive) |
| COc1ccc2cc(Oc3ccc(Cl)cc3)c(=O)oc2c1 | > 100 µM (inactive) | > 100 µM (inactive) | > 100 µM (inactive) | > 100 µM (inactive) | > 100 µM (inactive) | > 100 µM (inactive) | > 100 µM (inactive) | > 100 µM (inactive) | > 100 µM (inactive) | 50.8 µM (inactive) | > 100 µM (inactive) | > 100 µM (inactive) | > 100 µM (inactive) | > 100 µM (inactive) | > 100 µM (inactive) | > 10 µM (inactive) | > 100 µM (inactive) | – | > 100 µM (inactive) | > 100 µM (inactive) |
| CC(C)OP(=O)(OC(C)C)/C(C#N)=C/c1c[nH]c2ccccc12 | 48.9 µM (inactive) | > 100 µM (inactive) | > 100 µM (inactive) | > 100 µM (inactive) | > 100 µM (inactive) | 88.3 µM (inactive) | 54.6 µM (inactive) | > 100 µM (inactive) | > 100 µM (inactive) | > 100 µM (inactive) | > 100 µM (inactive) | > 100 µM (inactive) | > 100 µM (inactive) | 72.6 µM (inactive) | 49.8 µM (inactive) | > 100 µM (inactive) | 54.3 µM (inactive) | 76.6 µM (inactive) | – | 94 µM (inactive) |
| Nc1nc(Cl)c(N)c(NCC2(CO)CCC2)n1 | > 100 µM (inactive) | > 100 µM (inactive) | > 100 µM (inactive) | > 100 µM (inactive) | > 100 µM (inactive) | > 100 µM (inactive) | > 100 µM (inactive) | > 100 µM (inactive) | > 100 µM (inactive) | > 100 µM (inactive) | > 100 µM (inactive) | > 100 µM (inactive) | > 100 µM (inactive) | > 100 µM (inactive) | 91.8 µM (inactive) | > 100 µM (inactive) | > 100 µM (inactive) | > 100 µM (inactive) | > 100 µM (inactive) | > 100 µM (inactive) |
| N#CCCN(CCCN(C(=O)N(c1ccccc1)c1ccccc1)c1ccccc1)C(=O)Nc1ccccc1 | 35.6 µM (inactive) | 32.3 µM (inactive) | 67.3 µM (inactive) | 41.6 µM (inactive) | > 100 µM (inactive) | 11.5 µM (inactive) | 21.5 µM (inactive) | 94 µM (inactive) | > 100 µM (inactive) | > 100 µM (inactive) | > 100 µM (inactive) | – | > 100 µM (inactive) | 14 µM (inactive) | 64.9 µM (inactive) | 92 µM (inactive) | 74 µM (inactive) | > 100 µM (inactive) | 67 µM (inactive) | > 100 µM (inactive) |
| CC(=O)Oc1c(C)c2c(c3ncccc13)OC(C)C2 (configuration not stated) | 17.1 µM (inactive) | 18.8 µM (inactive) | 22.2 µM (inactive) | 15.1 µM (inactive) | – | 6.41 µM (inactive) | 14.5 µM (inactive) | 16.7 µM (inactive) | 14.8 µM (inactive) | 14.4 µM (inactive) | 15 µM (inactive) | 16.2 µM (inactive) | 34 µM (inactive) | 14.8 µM (inactive) | 9.14 µM (inactive) | 15.5 µM (inactive) | 14.8 µM (inactive) | 12.2 µM (inactive) | 14.8 µM (inactive) | 16.4 µM (inactive) |
| Cc1oc(N)c(S(=O)(=O)c2ccc(Cl)cc2)c1C | 45 µM (inactive) | 54.3 µM (inactive) | 50.7 µM (inactive) | 37.1 µM (inactive) | – | 47.3 µM (inactive) | 50.5 µM (inactive) | 40.2 µM (inactive) | 30.8 µM (inactive) | 43.1 µM (inactive) | 25.8 µM (inactive) | – | > 100 µM (inactive) | 29.9 µM (inactive) | 31.2 µM (inactive) | > 100 µM (inactive) | 40.2 µM (inactive) | 37.9 µM (inactive) | 37 µM (inactive) | 53.1 µM (inactive) |
| CC(C)[C@H](NC(=O)[C@H](C(C)C)N(Cc1ccccc1)Cc1ccccc1)C(=O)N(C)[C@H](C(=O)N1CCC[C@H]1C(=O)N(C)[C@H](C)C(=O)NCc1ccc(Cl)cc1)C(C)C (Bn2Val-V[NMeV]P[dNMeA]-{NH(4-Cl-benzyl)}) | 2.46 µM (inactive) | 1.74 µM (inactive) | 1.05 µM (active) | 3.38 µM (inactive) | 1.85 µM (inactive) | 2.42 µM (inactive) | 4.22 µM (inactive) | 2.69 µM (inactive) | 1.53 µM (inactive) | 2.98 µM (inactive) | 3.88 µM (inactive) | 2.58 µM (inactive) | 4.24 µM (inactive) | 3.44 µM (inactive) | 3.51 µM (inactive) | 2.86 µM (inactive) | 4.78 µM (inactive) | 3.32 µM (inactive) | – | 3.72 µM (inactive) |
